Target: Lysine-specific histone demethylase 1A (Homo sapiens, UniProt O60341)
Test: Inhibition of recombinant LSD1 (unknown origin) expressed in Escherichia coli BL21 (DE3) using H3K4me2 peptide as substrate incubated for 30 mins by fluorescence based microplate reader assay

IC50 [µM]	SMILES
4.71	CN(C)CCCN1c2ccccc2Sc2ccccc21 [PROMAZINE]
5.14	CN(C)CCCN1c2ccccc2Sc2ccc(Cl)cc21 [CHLORPROMAZINE]
> 10	CN(C)CCCN1c2ccccc2Sc2ccc(C(F)(F)F)cc21 [TRIFLUPROMAZINE]
